The record followed here is US7855213B2 (AstraZeneca AB, priority 2006, dated 2010).

Broadly, the IC50 is the concentration that inhibits the measured activity by half. Low readings indicate higher potency, high ones lower potency.

Structures can show the parent of a compound that is named as a salt.

The target in the test is T1, human β-Secretase (Homo sapiens, UniProt P56817).
T1 construct: The soluble part of the human β-Secretase (AA 1-AA 460) was cloned; made in house
T1 sequence (P56817 22-460): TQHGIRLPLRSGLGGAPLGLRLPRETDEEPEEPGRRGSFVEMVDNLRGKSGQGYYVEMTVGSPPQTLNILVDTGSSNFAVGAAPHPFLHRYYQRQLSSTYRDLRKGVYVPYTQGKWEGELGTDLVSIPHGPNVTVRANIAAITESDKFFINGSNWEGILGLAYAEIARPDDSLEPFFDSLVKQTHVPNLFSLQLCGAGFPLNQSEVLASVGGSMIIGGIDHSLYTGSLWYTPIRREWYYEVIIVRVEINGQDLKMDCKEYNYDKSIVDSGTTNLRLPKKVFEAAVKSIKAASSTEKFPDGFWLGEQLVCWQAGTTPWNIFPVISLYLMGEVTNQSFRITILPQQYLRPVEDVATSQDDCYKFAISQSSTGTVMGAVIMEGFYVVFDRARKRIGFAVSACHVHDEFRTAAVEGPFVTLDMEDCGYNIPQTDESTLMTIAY
In words: TR-FRET assay. Type of test: biochemical. (In general: Time-resolved FRET reads energy transfer from a long-lived donor to a nearby acceptor.)
For the compound `NC1=NC(c2ccncc2)(c2ccc(F)c(-c3cncc(F)c3)c2)c2ccccc21` (stereo not shown) [Example 69, 1-[4-Fluoro-3-(5-fluoropyridin-3-yl)phenyl]-1-pyridin-4-yl-1H-isoindol-3-amine 0.75 acetate], the 50% inhibitory concentration (IC50) turned out to be 99 nM.
The compound `COc1cccc(-c2cccc(C3(c4ccc(OS(C)(=O)=O)cc4)N=C(N)c4ccccc43)c2)c1` (stereo not shown) [Example 40, Methanesulfonic acid 4-[3-amino-1-(3′-methoxy-biphenyl-3-yl)-1H-isoindol-1-yl]-phenyl ester trifluoroaceate] came in with an IC50 of 570 nM.
`CC1(c2cccc(-c3cc(Cl)cc(Cl)c3)c2)N=C(N)c2ccccc21` (stereo not shown) [Example 94, 1-(3′,5′-Dichlorobiphenyl-3-yl)-1-methyl-1H-isoindol-3-amine hydrochloride] came in with a concentration for half-maximal inhibition (IC50) of 880 nM.
Regarding `NC1=NC(c2ccncc2)(c2cccc(-c3cncnc3)c2)c2ccccc21` (stereo not shown) [Example 45, 3-Pyridin-4-yl-3-(3-pyrimidin-5-yl-phenyl)-3H-isoindol-1-ylamine trifluoroacetate], half-maximal inhibition (IC50) required 501 nM.
`CC(C)c1cc(C2(c3cccc(-c4cncnc4)c3)N=C(N)c3ccccc32)ccn1` (stereo not shown) [Example 114, 1-(2-Isopropylpyridin-4-yl)-1-(3-pyrimidin-5-ylphenyl)-1H-isoindol-3-amine] had an IC50 of 300 nM.
In the case of `NC1=NC(c2cccc(-c3cccnc3F)c2)(c2ccc3c(c2)OCO3)c2ccccc21` (stereo not shown) [Example 31, 3-Benzo[1,3]dioxol-5-yl-3-[3-(2-fluoropyridin-3-yl)-phenyl]-3H-isoindol-1-ylamine trifluoroacetate], half-maximal inhibition (IC50) required 768 nM.
As to `NC1=NC(c2ccc(C(F)(F)F)cc2)(c2cccc(-c3cncnc3)c2)c2ccccc21` (stereo not shown) [Example 60, 1-(3-Pyrimidin-5-ylphenyl)-1-[4-(trifluoromethyl)phenyl]1H-isoindol-3-amine 0.25 acetate], it took 570 nM to reach half-maximal inhibition (IC50).
The result for `NC1=NC(c2ccc(OC(F)(F)F)cc2)(c2cccc(-c3cncc(F)c3)c2)c2ccccc21` (stereo not shown) [Example 56, 1-[3-(5-Fluoropyridin-3-yl)phenyl]-1-[4-(trifluoromethoxy)phenyl]-1H-isoindol-3-amine 0.75 acetate] reads 200 nM; that for `COc1cc(OS(C)(=O)=O)cc(-c2cccc(C3(c4ccc5c(c4)OCCO5)N=C(N)c4ccccc43)c2)c1` (stereo not shown) [Example 26, 5′-(3-Amino-1-(2,3-dihydrobenzo[b][1,4]dioxin-6-yl)-1H-isoindol-1-yl)-5-methoxybiphenyl-3-yl methanesulfonate trifluoroacetate], 1280 nM.
In turn, `NC1=NC(c2ccncc2)(c2cccc(-c3ccsc3C=O)c2)c2ccccc21` (stereo not shown) [Example 61, 3-[3-(3-Amino-1-pyridin-4-yl-1H-isoindol-1-yl)phenyl]thiophene-2-carbaldehyde] came in with a half-inhibitory concentration (IC50) of 2000 nM.
The compound `COc1ccc(F)c(-c2cccc(C3(c4ccncc4)N=C(N)c4ccccc43)c2)c1` (stereo not shown) [Example 103, 1-(2′-Fluoro-5′-methoxybiphenyl-3-yl)-1-pyridin-4-yl-1H-isoindol-3-amine] displayed an IC50 of 110 nM.
Turning to `COc1cc(OS(C)(=O)=O)cc(-c2cccc(C3(c4ccc(OC)c(C)c4)N=C(N)c4ccccc43)c2)c1` (stereo not shown) [Example 25, Methanesulfonic acid 3′-[3-amino-1-(4-methoxy-3-methyl-phenyl)-1H-isoindol-1-yl]-5-methoxy-biphenyl-3-yl ester trifluoroacetate], half-maximal inhibition (IC50) was put at 86 nM.
Take `CCc1cc(C2(c3cccc(-c4cncnc4)c3)N=C(N)c3ccccc32)ccn1` (stereo not shown) [Example 111, 1-(2-Ethylpyridin-4-yl)-1-(3-pyrimidin-5-ylphenyl)-1H-isoindol-3-amine]: the IC50 worked out at 95 nM.
The figure for `CS(=O)(=O)Oc1ccc(C2(c3cccc(-c4cncnc4)c3)N=C(N)c3ccccc32)cc1` (stereo not shown) [Example 38, Methanesulfonic acid 4-[3-amino-1-(3-pyrimidin-5-yl-phenyl)-1H-isoindol-1-yl]-phenyl ester trifluoroacetate] is 706 nM; for `NC1=NC(c2cccc(-c3cccnc3F)c2)(c2ccncc2F)c2ccccc21` (stereo not shown) [Example 73, 1-(3-Fluoropyridin-4-yl)-1-[3-(2-fluoropyridin-3-yl)phenyl]-1H-isoindol-3-amine 1.25 acetate] it is 130 nM; for `COc1ccc(C#N)c(-c2cccc(C3(C)N=C(N)c4ccccc43)c2)c1` (stereo not shown) [Example 93, 3′-(3-Amino-1-methyl-1H-isoindol-1-yl)-5-methoxybiphenyl-2-carbonitrile acetate] it is 4350 nM.
`COc1ccc(C2(c3cccc(-c4cncnc4)c3)N=C(N)c3ccccc32)cc1C` (stereo not shown) [Example 23, 3-(4-Methoxy-3-methyl-phenyl)-3-(3-pyrimidin-5-yl-phenyl)-3H-isoindol-1-ylamine trifluoroacetate] showed an IC50 of 88 nM.
The figure for `NC1=NC(c2cccc(-c3cccnc3F)c2)(c2ccnc(Cl)c2)c2ccccc21` (stereo not shown) [Example 121, 1-(2-Chloropyridin-4-yl)-1-[3-(2-fluoropyridin-3-yl)phenyl]-1H-isoindol-3-amine] is 80 nM; for `NC1=NC(c2cccc(-c3cccnc3)c2)(c2ccc3c(c2)OCO3)c2ccccc21` (stereo not shown) [Example 28, 3-Benzo[1,3]dioxol-5-yl-3-(3-pyridin-3-yl)-3H-isoindol-1-ylamine trifluoroacetate] it is 1610 nM; for `NC1=NC(c2ccc(C(F)(F)F)cc2)(c2cccc(-c3cncc(F)c3)c2)c2ccccc21` (stereo not shown) [Example 59, 1-[3-(5-Fluoropyridin-3-yl)phenyl]-1-[4-(trifluoromethyl)phenyl]-1H-isoindol-3-amine 0.25 acetate] it is 630 nM.
The figure for `COc1ccc(C2(c3cccc(-c4cncc(OC)c4)c3)N=C(N)c3ccc(F)cc32)cc1` (stereo not shown) [Example 81, 6-Fluoro-1-(4-methoxyphenyl)-1-[3-(5-methoxypyridin-3-yl)phenyl]-1H-isoindol-3-amine] is 26 nM.
The figure for `N#Cc1ccc(C2(c3cccc(-c4cncnc4)c3)N=C(N)c3ccccc32)cc1` (stereo not shown) [Example 58, 4-[3-Amino-1-(3-pyrimidin-5-ylphenyl)-1H-isoindol-1-yl]benzonitrile 0.25 acetate] is 710 nM.
For the compound `COc1ccc(C2(c3cccc(-c4cccc(OC)c4)c3)N=C(N)c3ccccc32)cc1` (stereo not shown) [Example 2, 3-(3′-Methoxy-biphenyl-3-yl)-3-(4-methoxy-phenyl)-3H-isoindol-1-ylamine trifluoroacetate], the 50% inhibitory concentration (IC50) was 110 nM.
The compound `Cc1ccc(-c2cccc(C3(c4ccncc4)N=C(N)c4ccccc43)c2)o1` (stereo not shown) [Example 63, 1-[3-(5-Methyl-2-furyl)phenyl]-1-pyridin-4-yl-1H-isoindol-3-amine acetate] returned an IC50 of 1100 nM.
The result for `NC1=NC(c2ccccc2)(c2ccccc2)c2ccccc21` [Example 1, 3,3-Diphenyl-3H-isoindol-1-ylamine] reads 9140 nM; that for `COc1ccc(C2(c3ccc(O)c(-c4cncnc4)c3)N=C(N)c3ccccc32)cc1` (stereo not shown) [Example 8, 4-[3-Amino-1-(4-methoxy-phenyl)-1H-isoindol-1-yl]-2-pyrimidin-5-yl-phenol trifluoroacetate], 40 nM.
The result for `NC1=NC(c2cccc(-c3cncnc3)c2)(c2ccc3c(c2)OCO3)c2ccccc21` (stereo not shown) [Example 30, 3-Benzo[1,3]dioxol-5-yl-3-(3-pyrimidin-5-ylphenyl)-3H-isoindol-1-ylamine trifluoroacetate] reads 942 nM.
The result for `NC1=NC(c2ccncc2)(c2ccc(F)c(-c3cncnc3)c2)c2ccccc21` (stereo not shown) [Example 68, 1-(4-Fluoro-3-pyrimidin-5-ylphenyl)-1-pyridin-4-yl-1H-isoindol-3-amine 0.5 acetate] reads 81 nM; that for `COc1ccc(C2(c3cccc(-c4cccnc4)c3)N=C(N)c3ccc(F)cc32)cc1` (stereo not shown) [Example 79, 6-Fluoro-1-(4-methoxyphenyl)-1-(3-pyridin-3-ylphenyl)-1H-isoindol-3-amine], 54 nM; that for `NC1=NC(c2ccncc2)(c2cccc(-c3cccnc3F)c2)c2ccccc21` (stereo not shown) [Example 42, 3-[3-(2-Fluoro-pyridin-3-yl)-phenyl]-3-pyridin-4-yl-3H-isoindol-1-ylamine trifluoroacetate], 110 nM.
The compound `NC1=NC(c2cncc(F)c2)(c2cccc(-c3cncnc3)c2)c2ccccc21` (stereo not shown) [Example 125, 1-(5-Fluoropyridin-3-yl)-1-(3-pyrimidin-5-ylphenyl)-1H-isoindol-3-amine] came in with a 50% inhibitory concentration (IC50) of 810 nM.
On to `COc1cccc(-c2cccc(C3(c4ccncc4F)N=C(N)c4ccccc43)c2)c1F` (stereo not shown) [Example 100, 1-(2′-Fluoro-3′-methoxybiphenyl-3-yl)-1-(3-fluoropyridin-4-yl)-1H-isoindol-3-amine], for which the IC50 came to 220 nM.
The figure for `COc1ccc(C2(c3cccc(-c4cncnc4)c3)N=C(N)c3ccccc32)cc1` (stereo not shown) [Example 13, 3-(4-Methoxy-phenyl)-3-(3-pyrimidin-5-yl-phenyl)-3H-isoindol-1-ylamine trifluoroacetate] is 106 nM.
`CS(=O)(=O)Oc1ccc(C2(c3cccc(-c4cccnc4F)c3)N=C(N)c3ccccc32)cc1` (stereo not shown) [Example 37, Methanesulfonic acid 4-{3-amino-1-[3-(2-fluoro-pyridin-3-yl)-phenyl]-1H-isoindol-1-yl}-phenyl ester trifluoroacetate]: the IC50 stood at 569 nM.
The result for `NC1=NC(c2ccncc2)(c2cccc(-c3cncnc3)c2)c2cc(Cl)ccc21` (stereo not shown) [Example 129, 6-Chloro-1-pyridin-4-yl-1-(3-pyrimidin-5-ylphenyl)-1H-isoindol-3-amine] reads 85 nM; that for `COc1cccc(-c2cccc(C3(c4ccc5c(c4)OCCO5)N=C(N)c4ccccc43)c2)c1` (stereo not shown) [Example 27, 3-(2,3-Dihydrobenzo[b][1,4]dioxin-6-yl)-3-(3′-methoxybiphenyl-3-yl)-3H-isoindol-1-amine trifluoroacetate], 1060 nM.
For `COc1cncc(-c2cccc(C3(c4ccc(OS(C)(=O)=O)cc4)N=C(N)c4ccccc43)c2)c1` (stereo not shown) [Example 39, Methanesulfonic acid 4-{3-amino-1-[3-(5-methoxy-pyridin-3-yl)-phenyl]-1H-isoindol-1-yl}-phenyl ester trifluoroacetate], the IC50 came to 350 nM.
